Source: patent US11317632B2, “Materials amd methods for buffering active chlorine solutions” (Pharmocon LLC, priority 2017, dated 2022)
Where two headings read alike, the source gives them in different places. Values belong to the compound of their own block, whether it stands above or below them.

What was measured:
[1] = Titration curves of buffers with standardized 0.1 N NaOH or HCl, pH meter; assay type: physicochemical; settings: for pKa: distilled water; for buffering range in the presence of magnesium: magnesium added
Method: Aqueous solutions containing chlorine and/or hypochlorous acid are referred to herein as free active chlorine or “FAC” solutions, regardless of their method of preparation and without regard to other species that may be present. Concentrations of HOCl are reported herein as ppm active chlorine, as determined by colorimetry using N,N-diethyl-p-phenylenediamine (DPD) as indicator. Samples were diluted 999:1 with distilled water prior to addition of a DPD-1 tablet (Pollardwater, New Hyde Park, N.Y.) to a 10-ml sample, and the value for ppm chlorine was determined with a colorimeter (MW-10, Milwaukee Instruments, Rocky Mount, N.C.) Chloride concentrations were determined by agentometric (Mohr) titration. Titration curves were determined by dissolving 40 mg of buffer in 20 ml distilled water and adding standardized 0.1 N NaOH or HCl, with pH measured with a digital pH meter calibrated daily at pH 4.0. New and known buffers were synthesized by the cited literature methods, varying the starting materials as required.

[2] = cited from earlier work
[3] = forward titration with NaOH, no additive

SMILES: O=P(O)(O)c1cccc(S(=O)(=O)O)c1 [3-phosphonobenzenesulfonic acid]
buffering from first phosphonate proton ([1]; no additive): 1.5-2 pH
moderate buffering from second phosphonate proton ([1]; no additive): 6.5-7.5 pH

SMILES: O=P(O)(O)c1ccccc1 [Phenyphosphonic acid]
second pKa [2]: over 7

missing proton ([1]; after addition of calcium nitrate, back titration with HCl): present ant titratable
pH at which three protons are titrated [1, 3]: 2-4 pH
pH at which two protons are titrated [1, 3]: 7-11 pH
SMILES: O=P(O)(O)c1cccc(P(=O)(O)O)c1P(=O)(O)O [benzene-1,2,3-triphosphonic acid]

buffering at pH 4-6 ([1]; pure triacid, no additive): completely absent
buffering at pH 4-6 ([1]; zinc nitrate added, back titration with HCl): present
SMILES: O=P(O)(O)c1ccc(P(=O)(O)O)c(P(=O)(O)O)c1 [benzene-1,2,4-triphosphonic acid]

SMILES: O=P(O)(O)c1ccccc1P(=O)(O)O [benzene-1,2-diphosphonic acid]
third pKa value ([1]; added strontium nitrate, compared to no additive): relatively unchanged
pKa ([1]; added strontium nitrate, read-out: first two pKa values): 3 to 4
pKa ([1]; added strontium nitrate, read-out: fourth pKa value): 9.5 to 10.5
pKa ([1]; magnesium sulfate present, read-out: fourth pKa): < 8
pKa ([1]; one equivalent of boric acid, read-out: third and fourth pKa values): 7 to 9
buffering from the fourth pKa / fourth pKa value ([1]; no additive): cannot be observed
extended buffering ([1]; one equivalent of boric acid, overlap with boric acid buffering): 8-9 pH

SMILES: O=P(O)(O)c1cccc(P(=O)(O)O)c1 [benzene-1,3-diphosphonic acid]
pKa values observed ([1]; no additive): typical benzenephosphonic acid pKa values

pKa ([1]; zinc nitrate (2 equivalents) added prior to titration, read-out: third and fourth pKa values): 3.5 to 4.5
buffering range in the presence of magnesium [1]: 5-8 pH
buffering from the first two pKas / first two protons ([1]; no additive): 2-3 pH
buffering from the fourth pKa / fourth pKa value ([1]; no additive): 9-10 pH
buffering from the third pKa / third proton ([1]; no additive): 6-7 pH
SMILES: O=P(O)(O)C(Cl)(Cl)P(=O)(O)O [clodronic acid, dichloromethanediphosphonic acid, reference compound]

SMILES: O=P(O)(O)C(F)(F)C(F)(F)F [pentafluoroethylphosphonic acid]
buffering from the first pKa ([1]; no additive): 2.5-3.5 pH
buffering from the second pKa ([1]; no additive): 4-5 pH

SMILES: O=P(O)(O)O [phosphate, phosphoric acid, reference compound]
buffering capacity in the pH range 3-6 ([1]; no additive): no buffering capacity
buffering capacity, lower range ([1]; no additive): 2-3 pH
buffering capacity, upper range ([1]; no additive): 7-8 pH

SMILES: O=P(O)(O)c1cccc(P(=O)(O)O)n1 [pyridine-2,6-diphosphonic acid]
buffering range in the presence of magnesium [1]: 2-3 pH
buffering, titration with NaOH from pH 2 to 11 ([1]; no additive): only modest buffering
